Measured values as given in patent US4557754A, “Bis-(N,N-dimethyl-N-carbodecyloxymethyl-N-ethylene-ammonium)-sulphide dichloride and use thereof” (priority 1980, dated 1985).

Experiments:
[1] = Treatment of inflammatory diseases of the middle ear; assay type: in vivo, men; details: for Recovery with comparator solutions: in a great number of cases; for Irrigations of the tympanic cavity required, relative to the preparation: solutions, for the same purpose
Procedure: was tested in treating inflammatory diseases of the middle ear in men: acute otitis and antritis media purulenta, chronic purulent mesotympanitis, and chronic purulent epitympanitis.
The treatment was applied to 65 patients.
The treatment procedure consisted in thorough and copious irrigation (with the help of Hartmann's cannula or blunt-ended needle) of the middle ear, attic, and Eustachian tube for maximum removal of purulent exudate and cholesteatoma masses.

lettuce = test: Effect on development of sprouts, agar medium in Petri dishes; assay type: in vivo; design: Germination capacity, lettuce: unit not given here; details: for Plant parts length, lettuce root / Plant parts length, lettuce stalk: 7 days
Procedure: (§1) The effect of the preparation was studied for 7 days under laboratory conditions on lettuce and oats plants.
(§2) The standards used in the tests were chlorocholine chloride whose structure is close to the studied chemical compound and heteroauxin phytohormone. Experiments on lettuce and oats growing in the presence of the above substances at a concentration of from 0.1 to 0.00001 wt.% were performed in Petri dishes with the use of agar medium as a substrate.
(§3) The seeds were placed into Petri dishes on solidified agar containing the test substance in the concentration indicated. The seeds germinated in a thermostat for 3 days at a temperature of from 22° to 24° C. Petri dishes with the sprouts were then placed for further growth into an exhausting hood with illumination for 4 days, whereafter the length of the roots, stalks and leaves of the sprouts was measured.

oats = test: as above; assay type: in vivo; design: Germination capacity, oats: unit not given here; details: for Plant parts length, oats leaf / Plant parts length, oats root: 7 days
Procedure: as §1, §2, §3

Rats [2] = details: cited from earlier work
Rats [3] = test: Toxicity (LD50) compared with chlorocholine chloride; assay type: in vivo; details: versus chlorocholine chloride
[4] = tested on: staphylococci, Escherichia coli, and intestinal group microorganisms; test: Antimicrobial action, overall; assay type: cell-based; details: analysis of the test results
Procedure: (§4) Antimicrobial properties of said preparation were investigated by a classical method of series dilutions in standard liquid nutrient media.
(§5) The activity of the above preparation was tested by its action on staphylococci, Escherichia coli, and intestinal group microorganisms.

calves = test: Chronic toxicity test, intravenous; assay type: in vivo; details: 10 mg per kg daily for 30 days
Description: Test group consisted of 10 calves, the other 10 calves to which the above preparation was not prescribed making up a control group. The calves of both groups were kept in the same conditions. General state and behaviour of the calves, rate of gain were controlled and peripheric blood counts (hemoglobin, erythrocytes, leucocytes, thrombocytes, differential blood count) were made daily during the test. To determine the functional state of liver, kidneys, and pancreas, certain biochemical characteristics of the urine (protein, sugar, and biliary pigments content) and blood (sugar, cholesterol, bilirubin, urea, alkaline phosphatase, and chlorides content) were studied.
At the end of the test period the test group animals were killed and their internal organs were studied by macro- and microscopic techniques.

Solubility = assay type: physicochemical
Mice = test: Acute toxicity test; assay type: in vivo, white mice; details: for LD100: mice, 24 hours
Procedure: (§6) Bis-(N,N-dimethyl-N-carbodecyloxymethyl-N-ethyleneammonium)-sulphide dichloride was tested for toxicity in an acute test on rats of both sexes with an average mass of 200 to 250 g and on white mice of both sexes with an average mass of 22 to 25 g with enteral and intraperitoneal administrations. Aqueous solutions of the above preparation (from 10 to 5000 mg per kg of animal weight) were used for enteral and intraperitoneal administration. Each dosage was tried on five animals. Animal death rate was registered 24 hours after the administration of the above solutions.

Acute toxicity test [5] = assay type: in vivo, white mice; details: mouse, in vivo, mice, 24 hours
Procedure: as §6

Shigella sonnei = test: Antimicrobial activity, series dilutions in liquid nutrient media; assay type: cell-based; details: 7 strains
Procedure: as §4, §5

Proteus vulgaris = test: as above; assay type: cell-based; details: 2 strains
Procedure: as §4, §5

Salmonella sp. = test: as above; assay type: cell-based; details: 7 strains
Procedure: as §4, §5

Escherichia coli = test: as above; assay type: cell-based; details: 10 strains
Procedure: as §4, §5

Staphylococcus aureus = test: as above; assay type: cell-based; details: 20 strains
Procedure: as §4, §5

Proteus morgani = test: as above; assay type: cell-based; details: 4 strains
Procedure: as §4, §5

Staphylococcus albus = test: as above; assay type: cell-based; details: 20 strains
Procedure: as §4, §5

Acute toxicity test [6] = assay type: in vivo; details: rat, in vivo, rats
Procedure: as §6

Rats [7] = test: Acute toxicity test; assay type: in vivo; details: 24 hours
Procedure: as §6

[8] = Stability of aqueous solutions / retention of antimicrobial activity; assay type: physicochemical
Description: Aqueous solutions of the preparation were stable.

[9] = read-out: Average bactericidal concentration
[10] = read-out: Average bacteriostatic concentration

## CC1(C)S[C@@H]2[C@H](NC(=O)Cc3ccccc3)C(=O)N2[C@H]1C(=O)O [penicillin]
[1]
  Recovery with comparator solutions: did not result in recovery
  Irrigations of the tympanic cavity required, relative to the preparation: twice as many or even more

## O=C(O)Cc1c[nH]c2ccccc12 [Heteroauxine]
lettuce; 0.0001 wt. %
  Germination capacity, lettuce: 81
  Plant parts length, lettuce root: 88
  Plant parts length, lettuce stalk: 92
lettuce; 0.001 wt. %
  Germination capacity, lettuce: 55
  Plant parts length, lettuce root: 27
  Plant parts length, lettuce stalk: 24
lettuce; 0.01 wt. %
  Germination capacity, lettuce: 0
  Plant parts length, lettuce root: 0
  Plant parts length, lettuce stalk: 0
oats; 0.0001 wt. %
  Germination capacity, oats: 100
  Plant parts length, oats leaf: 92
  Plant parts length, oats root: 88
oats; 0.001 wt. %
  Germination capacity, oats: 102
  Plant parts length, oats leaf: 67
  Plant parts length, oats root: 28
oats; 0.01 wt. %
  Germination capacity, oats: 84
  Plant parts length, oats leaf: 35
  Plant parts length, oats root: 19

## C[N+](C)(C)CCCl.[Cl-] [Chlorocholine chloride]
lettuce; 0.0001 wt. %
  Germination capacity, lettuce: 98
  Plant parts length, lettuce root: 104
  Plant parts length, lettuce stalk: 98
lettuce; 0.001 wt. %
  Germination capacity, lettuce: 94
  Plant parts length, lettuce root: 102
  Plant parts length, lettuce stalk: 110
lettuce; 0.01 wt. %
  Germination capacity, lettuce: 94
  Inhibition of root development: does not inhibit root development
  Plant parts length, lettuce root: 101
  Plant parts length, lettuce stalk: 99
oats; 0.0001 wt. %
  Germination capacity, oats: 91
  Plant parts length, oats leaf: 94
  Plant parts length, oats root: 102
oats; 0.001 wt. %
  Germination capacity, oats: 99
  Plant parts length, oats leaf: 97
  Plant parts length, oats root: 92
oats; 0.01 wt. %
  Germination capacity, oats: 98
  Plant parts length, oats leaf: 96
  Plant parts length, oats root: 94
Rats [2]
  LD50: 250 mg/kg

## CCCCCCCCCCOC(=O)C[N+](C)(C)CCSCC[N+](C)(C)CC(=O)OCCCCCCCCCC [bis-(N,N-dimethyl-N-carbodecyloxymethyl-N-ethyleneammonium)-sulphide dichloride]
Rats [3]
  Toxicity compared with chlorocholine chloride: much lower
[4]
  Antimicrobial action, overall: strong antimicrobial action
lettuce; 0.00001 wt. %
  Germination capacity, lettuce: 86
  Plant parts length, lettuce root: 91
  Plant parts length, lettuce stalk: 91
lettuce; 0.0001 wt. %
  Germination capacity, lettuce: 89
  Plant parts length, lettuce root: 96
  Plant parts length, lettuce stalk: 99
lettuce; 0.001 wt. %
  Germination capacity, lettuce: 100
  Plant parts length, lettuce root: 88
  Plant parts length, lettuce stalk: 91
lettuce; 0.01 wt. %
  Germination capacity, lettuce: 34
  Plant parts length, lettuce root: 15
  Plant parts length, lettuce stalk: 38
lettuce; 0.1 wt. %
  Germination capacity, lettuce: 0
  Plant parts length, lettuce root: 2
  Plant parts length, lettuce stalk: 0
lettuce; 0.1 wt.%, dicotyledonous plants
  Herbicidal action: selective herbicide
lettuce; lettuce (dicotyledonous)
  Phytoncidal action: more phytoncidal
oats; 0.00001 wt. %
  Germination capacity, oats: 91
  Plant parts length, oats leaf: 105
  Plant parts length, oats root: 100
oats; 0.0001 wt. %
  Germination capacity, oats: 87
  Plant parts length, oats leaf: 99
  Plant parts length, oats root: 86
oats; 0.001 wt. %
  Germination capacity, oats: 87
  Plant parts length, oats leaf: 96
  Plant parts length, oats root: 88
oats; 0.01 wt. %
  Germination capacity, oats: 86
  Plant parts length, oats leaf: 93
  Plant parts length, oats root: 54
oats; 0.1 wt. %
  Germination capacity, oats: 87
  Plant parts length, oats leaf: 55
  Plant parts length, oats root: 6
oats; oats (monocotyledonous)
  Inhibition of growth of roots versus leaves: more strongly inhibits the growth of roots than that of leaves
calves
  Pathologic changes at autopsy, macro- and microscopic study: no pathologic changes
calves; 0.2 wt.% in sodium chloride solution
  Changes in the calves under chronic test conditions: did not cause significant changes
Solubility; diethyl ether
  Solubility in diethyl ether: insoluble
Solubility; lower alcohols
  Solubility in lower alcohols: soluble
Solubility; water
  Solubility in water: soluble
Mice; analysis of the test results (mice, rats, calves)
  Toxicity group, overall: low-toxic
Mice; enteral
  LD100: 2500 mg/kg
Mice; intraperitoneal
  LD100: 70.0 mg/kg
Acute toxicity test [5]; ip, intraperitoneal
  LD50 at 24 h: 54.1 mg/kg
Acute toxicity test [5]; po, enteral
  LD50 at 24 h: 1220 mg/kg
Shigella sonnei; [9]
  MBC: 28.4 µg/mL
Shigella sonnei; [10]
  MIC: 5.85 µg/mL
Proteus vulgaris; [9]
  MBC: 62.5 µg/mL
Proteus vulgaris; [10]
  MIC: 62.5 µg/mL
Salmonella sp.; [9]
  MBC: 31.2 µg/mL
Salmonella sp.; [10]
  MIC: 31.2 µg/mL
Escherichia coli; [9]
  MBC: 6.4 µg/mL
Escherichia coli; [10]
  MIC: 3.9 µg/mL
Staphylococcus aureus; [9]
  MBC: 2.63 µg/mL
Staphylococcus aureus; [10]
  MIC: 0.76 µg/mL
Proteus morgani; [9]
  MBC: 50.7 µg/mL
Proteus morgani; [10]
  MIC: 50.7 µg/mL
Staphylococcus albus; [9]
  MBC: 1.67 µg/mL
Staphylococcus albus; [10]
  MIC: 0.6 µg/mL
Acute toxicity test [6]; ip, intraperitoneal
  LD50 at 24 h: 67.7 mg/kg
Acute toxicity test [6]; po, enteral
  LD50 at 24 h: 2660 mg/kg
Rats [7]; enteral
  LD100: 3500 mg/kg
Rats [7]; intraperitoneal
  LD100: 80.0 mg/kg
[8]; 1% and 0.1% solutions, 6 months
  Activity after storage of solutions: did not lose its activity
[8]; aqueous solutions
  Stability of aqueous solutions: stable
[8]; pH 5 to 8
  Antimicrobial activity as a function of pH: remains unchanged
[8]; single and double autoclaving, 60 minutes at 2.5 atm
  Antimicrobial activity after autoclaving: did not alter the antimicrobial activity

## [H]/N=C(/N)N[C@H]1[C@H](O)[C@@H](O)[C@H](O[C@@H]2O[C@@H](C)[C@](O)(C=O)[C@H]2O[C@@H]2O[C@@H](CO)[C@H](O)[C@@H](O)[C@@H]2NC)[C@@H](N/C(N)=N\[H])[C@@H]1O [streptomycin]
[1]
  Recovery with comparator solutions: did not result in recovery
  Irrigations of the tympanic cavity required, relative to the preparation: twice as many or even more
